Measured values: patent US7659283B2, “Pyrrolo [3,2-C] pyridines useful as inhibitors of protein kinases” (Vertex Pharmaceuticals Incorporated, priority 2006, dated 2010)

Legend:
[1] = biological target: human Src kinase (Homo sapiens, UniProt P12931); experiment: Src Inhibition Assay: Spectrophotometric Assay; type: biochemical; conditions: 25 nM Src, 100 μM ATP, 30° C., coupled NADH spectrophotometric assay; read-out: Ki (inhibit Src)
Experimental: The compounds are evaluated as inhibitors of human Src kinase using a spectrophotometric assay.
Src Inhibition Assay: Spectrophotometric Assay
An assay buffer solution was prepared which consisted of 25 mM HEPES (pH 7.5), 10 mM MgCl2, 250 μM NADH, 3 mM phosphoenolpyruvate, 60 μg/mL pyruvate kinase, 21 μg/mL lactate dehydrogenase, 113 μM ATP and 28 nM Src. To 60 μL of this solution, in a 96 well plate, was added 2 μL of test compound stock solution in DMSO and the mixture allowed to equilibrate for 10 mins at 30° C. The enzyme reaction was initiated by the addition of 5 μL 10 mg/mL poly Glu, Tyr (4:1) prepared in 25 mM HEPES (pH 7.5). Final assay concentrations of Src and ATP were 25 nM and 100 μM respectively. Initial rate data was determined from the rate of change of absorbance at 340 nm (corresponding to stoichiometric consumption of NADH) using a Molecular Devices Spectramax plate reader (Sunnyvale, Calif.) over 10 mins at 30° C. For each Ki determination 8 data points covering the test compound concentration range of 0-7.5 μM were obtained in duplicate. Ki values were calculated from initial rate data by non-linear regression using the Prism software package (Prism 4.0a, Graphpad Software, San Diego, Calif.).

[2] = biological target: human Lck kinase (Homo sapiens, UniProt P06239); experiment: Lck Inhibition Assay: Spectrophotometric Assay; type: biochemical; conditions: 60 nM Lck, 500 μM ATP, 30° C., coupled NADH spectrophotometric assay; read-out: Ki (inhibit Lck)
Experimental: The compounds are evaluated as inhibitors of human Lck kinase using a spectrophotometric assay.
Lck Inhibition Assay: Spectrophotometric Assay
An assay buffer solution was prepared which consisted of 25 mM HEPES (pH 7.5), 10 mM MgCl2, 250 μM NADH, 3 mM phosphoenolpyruvate, 43 μg/mL pyruvate kinase, 14 μg/mL lactate dehydrogenase, 560 μM ATP and 67 nM Lck. To 60 μL of this solution, in a 96 well plate, was added 2 μL of test compound stock solution in DMSO and the mixture allowed to equilibrate for 10 minutes at 30° C. The enzyme reaction was initiated by the addition of 5 μL 15 mg/mL poly Glu, Tyr (4:1) prepared in 25 mM HEPES (pH 7.5). Final assay concentrations of Lck and ATP are 60 nM and 500 μM respectively. Initial rate data was determined from the rate of change of absorbance at 340 nm (corresponding to stoichiometric consumption of NADH) using a Molecular Devices Spectramax plate reader (Sunnyvale, Calif.) over 10 min at 30° C. For each Ki determination 8 data points covering the test compound compound concentration range of 0-7.5 μM are obtained in duplicate. Ki values are calculated from initial rate data by non-linear regression using the Prism software package (Prism 4.0a, Graphpad Software, San Diego, Calif.).

Chain of human Src kinase (P12931 whole entry): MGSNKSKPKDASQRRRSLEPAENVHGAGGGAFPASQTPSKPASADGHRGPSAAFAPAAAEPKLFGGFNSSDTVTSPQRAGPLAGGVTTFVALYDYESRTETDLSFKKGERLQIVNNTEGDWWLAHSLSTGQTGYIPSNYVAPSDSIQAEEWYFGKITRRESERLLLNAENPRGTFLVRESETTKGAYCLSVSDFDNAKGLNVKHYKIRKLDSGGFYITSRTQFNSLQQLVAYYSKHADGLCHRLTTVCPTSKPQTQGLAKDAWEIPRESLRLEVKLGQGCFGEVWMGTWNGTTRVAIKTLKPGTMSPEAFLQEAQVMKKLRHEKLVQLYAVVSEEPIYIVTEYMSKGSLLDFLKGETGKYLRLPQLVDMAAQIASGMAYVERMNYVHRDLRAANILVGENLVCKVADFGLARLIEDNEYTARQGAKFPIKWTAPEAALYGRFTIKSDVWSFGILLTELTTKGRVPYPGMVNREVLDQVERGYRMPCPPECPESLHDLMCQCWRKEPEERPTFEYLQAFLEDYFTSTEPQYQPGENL
Chain of human Lck kinase (P06239 whole entry): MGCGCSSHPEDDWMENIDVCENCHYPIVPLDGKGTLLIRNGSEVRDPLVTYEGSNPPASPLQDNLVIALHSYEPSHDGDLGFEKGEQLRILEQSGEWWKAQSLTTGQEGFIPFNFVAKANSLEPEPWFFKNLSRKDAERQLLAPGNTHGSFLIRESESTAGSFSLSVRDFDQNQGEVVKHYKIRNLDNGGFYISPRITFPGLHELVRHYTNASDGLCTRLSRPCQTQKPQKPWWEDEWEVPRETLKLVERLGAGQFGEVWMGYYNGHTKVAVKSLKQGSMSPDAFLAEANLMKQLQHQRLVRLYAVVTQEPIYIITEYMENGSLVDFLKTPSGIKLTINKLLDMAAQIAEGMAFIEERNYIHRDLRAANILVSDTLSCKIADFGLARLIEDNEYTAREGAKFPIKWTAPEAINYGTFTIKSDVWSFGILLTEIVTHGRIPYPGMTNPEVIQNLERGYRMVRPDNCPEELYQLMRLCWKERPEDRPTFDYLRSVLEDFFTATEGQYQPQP

Nc1nccc2c1c(-c1ccc(Oc3ccccc3)cc1)cn2C1CCCC1 [Compound I-1, 1-Cyclopentyl-3-(4-phenoxyphenyl)-1H-pyrrolo[3,2-c]pyridin-4-amine]
Ki [1]: < 1 µM
Ki [2]: < 1 µM
